Experiments:
[1] = system: binding of cetuximab to the EGFR; test: ELISA inhibition of binding of cetuximab to the EGFR by synthetic peptides (FIG. 3B, FIGS. 7A-C)
Source text: (§1) BSA served as an additional negative control, and the EGFR, as a positive control. […] Insertless phage served as a negative control. […] Bars represent mean±SEM.
Similar methodologies have been applied to therapeutic (Binder et al., 2006; Binder et al., 2007; Riemer et al., 2005) or diagnostic (Jaalouk et al., 2007) antibodies in a strategy that could reveal mechanisms of action (Binder et al., 2007), identify biological reagents for immunization (Riemer et al., 2005), or discover unrecognized antigens (Jaalouk et al., 2007).

HN5 tumor cells [2] = test: Inhibition by peptide of the cetuximab-dependent inhibition of proliferation, HN5; assay type: cell-based, human; details: HN5, with cetuximab; 60 μM or 180 μM CVRAC, FIG. 4A
Experimental: (§2) A representative experiment is depicted. […] Bars represent mean±SEM. […] (FIG. 4C) Effect of the synthetic peptides on HN5 tumor cells. […] Viability in the absence of peptide was set to 100%. […] Bars represent mean±SEM. […] Receptors were immunoprecipitated with antibodies against phosphorylated (p) pEGFR and were immunoblotted with anti-phosphotyrosine IgG.
(§3) Tumor cell lines HN5, UMSCC 10A, GEO and EF43.fgf-4 were culture in standard conditions. Viability was assessed by MTT assays (Sigma) as described (Cardó-Vila et al., 2003). […] Samples were read at 570 nm.

cetuximab = test: Binding of synthetic peptides to cetuximab (ELISA-based, FIG. 3A, FIG. 4B); details: FIG. 4B (peptides plated at 10 μg/ml)
Source text: as §1, §2
(§4) The EGFR served as an immobilized positive control, and BSA or control peptides (CVAAC) served as immobilized negative controls.

[3] = system: polyclonal anti-CVRAC antibodies; test: ELISA recognition of peptides by polyclonal anti-CVRAC antibodies (FIG. 4B); assay type: binding, rabbit
Source text: as §2
Rabbits were immunized with KLH-conjugated CVRAC and a purified antibody was obtained. […] The capacity of rabbit IgG against CVRAC to recognize CVRAC, D(CARVC), and EGFR was measured by ELISA.
as §4

[4] = Nuclear magnetic resonance (NMR)-spectroscopy interactions; assay type: binding
[5] = system: EF43.fgf-4-derived tumors; test: Treatment of tumor-bearing mice with peptides and peptidomimetics, tumor volume; assay type: in vivo; details: Balb/c mice, EF43.fgf-4 tumors
Source text: FIGS. 5A-B: CVRAC-targeted phage homes to tumor. (FIG. 5A) Targeting tumors versus control organs. […] An anti-phage antibody was used for staining H&E staining, with the corresponding fluorescence-based immunostaining, are shown in tumors (FIG. 5A). Tumor-bearing mice received CVRAC phage, CVAAC phage, or insertless control phage as indicated. Cohorts of tumor-bearing mice (n=5 mice/group) were used. A representative experiment is shown. Scale bar, 100 μm. (FIG. 5B) Treatment of tumor-bearing mice with peptides and peptidomimetics. Balb/c mice bearing EF43.fgf-4-derived tumors were divided into size-matched cohorts (n=7 mice/group); individual tumor volumes are represented before (black circles) and after (white circles). Peptides and peptidomimetics were administered at 750 μg/mouse/dose for 5 days. Shown are mean tumor volumes±SEM.
Selective phage homing to tumors was evaluated as described (Hajitou et al., 2006; Arap et al., 1998). […] Each cohort of mice (n=3 per experiment) with size-matched tumors received a set of test and control phage clones. After 6 h, tumor-bearing mice were perfused through the heart with 20 ml of PBS containing 4% paraformaldehyde (PFA). […] For experimental therapy, Balb/c mice bearing EF43.fgf-4-derived tumors were established, and tumor volumes were determined as described (Arap et al., 1998; Hajitou et al., 2006; Ciardiello et al., 1999). […]

HN5 tumor cells [6] = test: Cell viability/proliferation, MTT assay, HN5; assay type: cell-based, human; design: cell proliferation / viability: dose or concentration left out as unconfirmed; details: for cell proliferation / viability: HN5, MTT, 120 h, increasing concentrations, FIG. 4C
Experimental: as §2, §3
Tumor cell lines HN5, UMSCC 10A, GEO and EF43.fgf-4 were maintained in high-glucose DMEM, supplemented with 10% heat-inactivated fetal bovine serum, 20 mM HEPES (pH 7.4), 100 IU/ml penicillin, 100 μg/ml streptomycin, and 4 mM glutamine at 5% CO2 at 37° C. EF43.fgf-4 were grown in G418 as described (Hajitou et al., 2006).

GEO tumor cells = test: Inhibition by peptide of the cetuximab-dependent inhibition of proliferation, GEO; assay type: cell-based, human; details: with cetuximab
Experimental: as §3

AKT = test: EGF-induced phosphorylation of AKT in HN5 cells; assay type: cell-based; details: human HN5 head and neck cells
Source text: (§5) To dissect the downstream signal transduction cascade in this setting, proliferative, survival, and migratory pathways were examined.

[7] = molecular target: binding of TGFα to the EGFR (Homo sapiens, UniProt P01135); test: Displacement of TGFα from immobilized EGFR (FIG. 6B); details: increasing molar concentrations
binding of TGFα to the EGFR, sequence (P01135 40-89 limits assumed): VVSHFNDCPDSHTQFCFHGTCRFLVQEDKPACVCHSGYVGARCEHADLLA
Source text: (§6) The EGFR was coated onto 96-well plates at decreasing concentrations. […] D(CAAVC (SEQ ID NO:8)) was used as a negative peptidomimetic control at the same concentrations (circles). […] Bars represent mean±SEM.
(§7) Decreasing molar concentrations of EGFR were immobilized in vitro, after which the native ligand (EGF or TGFα) was used to establish the baseline for the binding of EGF to the EGFR, or of TGFα to the EGFR.

ERK = test: EGF-induced phosphorylation of ERK in HN5 cells; assay type: cell-based; details: human HN5 head and neck cells
Source text: as §5

p38 = test: EGF-induced phosphorylation of p38 in HN5 cells; assay type: cell-based; details: human HN5 head and neck cells
Source text: as §5

[8] = molecular target: binding of EGF to the EGFR (Homo sapiens, UniProt P01133); test: Displacement of EGF from immobilized EGFR (FIG. 6A); details: D(CARVC) from 30 to 1,000 mM, cetuximab 12 nM positive control
binding of EGF to the EGFR, sequence (P01133 971-1023 limits assumed): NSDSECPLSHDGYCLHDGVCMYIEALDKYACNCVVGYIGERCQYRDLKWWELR
Source text: as §6, §7

EGFR = test: EGF-induced EGFR autophosphorylation (immunoprecipitation, anti-phosphotyrosine blot); assay type: cell-based, human; details: HN5 tumor cells, EGF 15 min, FIG. 4E
Source text: as §2

inhibition of binding of cetuximab to the EGFR ([1]; ELISA, FIG. 3B) | initial functional screen of consensus motif panel (n=15) with cetuximab ([1]; FIGS. 7A-C) | Substance | inhibition of the antibody-dependent inhibition of proliferation (HN5 tumor cells [2]) | binding of synthetic peptide to cetuximab (cetuximab) | recognition by polyclonal anti-CVRAC antibodies [3] | interactions by NMR-spectroscopy [4] | therapeutic efficacy, tumor growth ([5]; 750 μg/mouse/dose) | cell proliferation / viability (HN5 tumor cells [6]) | inhibition of the antibody-dependent inhibition of proliferation (GEO tumor cells) | EGF-induced phosphorylation of AKT (AKT) | displacement of TGFα from the EGFR [7] | EGF-induced phosphorylation of ERK (ERK) | EGF-induced phosphorylation of p38 (p38) | tumor volume ([5]; at the end of two weeks, 750 μg/mouse/dose for 5 days, mean±SEM) [mm^3] | displacement of EGF from the EGFR [8] | activity on an equimolar basis compared with CVRAC (HN5 tumor cells [6]; prolonged (120 h) functional assay) | EGF-induced tyrosine phosphorylation of the EGFR (EGFR)
Concentration-dependent inhibition | not significantly different | CVRAC [synthetic cyclic peptide, EGFR residues 283-287] | concentration-dependent inhibition | specifically bind to cetuximab | recognized | Low-affinity interactions (micromolar range) | showed therapeutic efficacy in vivo | proliferated much less | concentration-dependent inhibition |  |  |  |  |  |  |  | 
 |  | D(CARVC) |  | retained binding activity | recognized | Low-affinity interactions (micromolar range) |  | proliferated much less |  | inhibit | concentration-dependent displacement | inhibit | not | 550±50 | concentration-dependent effect | more potent | effectively inhibited
